Values quoted from earlier work, collected in patent US20240298642A1, “Herbicidal Compositions Comprising Fluazifop And Triclopyr” (Bayer CropScience LP, priority 2023, published 2024).

Conditions: neat solvent

Row | flash point [°C] | SMILES
1 | 65 | CCCCCCO [Composition 1-hexanol, 1-hexanol]
2 | 81 | CCCCCCCCO [Composition 1-octanol, 1-octanol]
